{"source": "patent US6514954B1", "about": "“Pesticidal compositions” (priority 1997, dated 2003)", "tested_on": "Myzus persicae", "test": "Example B6: action against Myzus persicae (leaf circle bioassay, sprayed Capsicum plants)", "format": "in vivo", "conditions": "96 h, read-out: Action % (mortality of nymphs)", "source_text": "A synergistic effect is always present if the action EA of the combination of an active compound of the formula (A) with one of the active compounds (I) to (XXXI) is greater than the sum of the action of the active compounds applied individually:\nHowever, the pesticidal action EA to be expected for a given combination of two pesticides can also be calculated as follows (cf. COLBY, S. R., “Calculating synergistic and antagonistic response of herbicide combinations”, Weeds 15, Pages 20-22, 1967): [formula]\nX=Percent mortality on treatment with the compound of the formula (A) at a rate of application of p kg per hectare compared with the untreated control (=0%).\nY=Percent mortality on treatment with a compound (I) to (XXXI) at a rate of application of q kg per hectare compared with the untreated control.\nEA=Expected pesticidal action (percent mortality compared with the untreated control) after treatment with the compound of the formula (A) and a compound (I) to (XXXI) at a rate of application of p+q kg of active compound per hectare.\nIf the action actually observed is greater than the expected value EA, synergism exists.\nAction Against Myzus persicae\nCapsicum plants (Capsicum annuum L.) 6 weeks old are sprayed with an aqueous emulsion spray liquor which comprises the individual compounds and mixtures according to the following table. The plants were placed in a greenhouse until determination of the activity.\nThe activity against Myzus persicae was measured in bioassays. 2-4 hours after application, circles of leaf are stamped out, placed with the upper side down on agar in Petri dishes and infested with an M. persicae mixed population consisting of 40-50 non-synchronous individuals. A total of 9 circles of leaf per concentration are used. The Petri dishes are covered with a cotton wool filter, closed with a plastic lid and placed in a climatically controlled chamber for plants. One day after infestation, the circles of leaf are cleaned of adults, skins and nymphs, so that only 25-40 nymphs laid overnight remain per circle of leaf. Four days after infestation, the mortality is determined by counting the dead and living nymphs. The tests are carried out 3 times. The results shown in the table are the average values of the tests.", "data": [{"smiles": "CC1(C)C(C=C(Cl)Cl)C1C(=O)OC(C#N)c1cccc(Oc2ccccc2)c1", "note": "(racemic) [Cypermethrin high-cis, (RS)-α-cyano-3-phenoxybenzyl (1RS)-cis-trans-3-(2,2-dichlorvinyl)-1,1-dimethylcyclo-propanecarboxylate]", "values": [{"measurement": "mortality at 600 ppm", "setting": "Conc. 600 ppm, four days after infestation, average of 3 tests", "value": 8.2, "unit": "%"}]}, {"smiles": "CN1COCN(Cc2cnc(Cl)s2)C1=N[N+](=O)[O-]", "note": "[A.5, 5-(2-chlorothiazol-5-ylmethyl)-3-methyl-4-nitroimino-perhydro-1,3,5-oxadiazine]", "values": [{"measurement": "mortality at 0.1 ppm", "setting": "Conc. 0.1 ppm, four days after infestation, average of 3 tests", "value": 5.9, "unit": "%"}, {"measurement": "mortality at 0.2 ppm", "setting": "Conc. 0.2 ppm, four days after infestation, average of 3 tests", "value": 35, "unit": "%"}]}, {"smiles": "CCCSP(=O)(OCC)Oc1ccc(Br)cc1Cl", "note": "(centres unmarked) [Profenofos, O-4-bromo-2-chlorophenyl O-ethyl S-propyl phosphorothioate]", "values": [{"measurement": "mortality at 35 ppm", "value": 12.3, "unit": "%"}]}, {"smiles": "CC1=NNC(=O)N(N=Cc2cccnc2)C1", "note": "[Pymetrozine, 2,3,4,5-tetrahydro-3-oxo-4-[(pyridin-3-yl)-methyleneamino]-6-methyl-1,2,4-triazine]", "values": [{"measurement": "mortality at 0.3 ppm", "setting": "Conc. 0.3 ppm, four days after infestation, average of 3 tests", "value": 38.4, "unit": "%"}]}]}
